Data as given in the NIST ThermoML archive (doi:10.1007/s10765-011-1052-5).
Values joined by “and” are separate entries in the source; they are usually repeats but may differ in a detail not shown here. Identical values can stand only once. Numbers after ± are expanded uncertainties.

Conditions: Fluid (supercritical or subcritical phases), Hot wire method

[He] [helium]
Conditions | thermal conductivity
323.19 K, 5030 kPa | 0.1676 ± 0.0038 W/m/K
323.19 K, 10055 kPa | 0.1696 ± 0.0038 W/m/K and 0.1695 ± 0.0038 W/m/K and 0.1694 ± 0.0038 W/m/K
323.19 K, 29885 kPa | 0.1784 ± 0.004 W/m/K and 0.1786 ± 0.004 W/m/K
323.19 K, 29886 kPa | 0.1782 ± 0.004 W/m/K
323.19 K, 29887 kPa | 0.1783 ± 0.004 W/m/K
323.2 K, 5030 kPa | 0.1674 ± 0.0038 W/m/K and 0.1675 ± 0.0038 W/m/K and 0.1677 ± 0.0038 W/m/K
323.21 K, 50067 kPa | 0.187 ± 0.0042 W/m/K
323.21 K, 50070 kPa | 0.1872 ± 0.0042 W/m/K
323.21 K, 50072 kPa | 0.1872 ± 0.0042 W/m/K
323.21 K, 50075 kPa | 0.187 ± 0.0042 W/m/K
323.21 K, 70102 kPa | 0.196 ± 0.0044 W/m/K
323.21 K, 70105 kPa | 0.196 ± 0.0044 W/m/K
323.21 K, 70109 kPa | 0.1961 ± 0.0044 W/m/K
323.21 K, 70112 kPa | 0.1964 ± 0.0044 W/m/K
323.21 K, 98251 kPa | 0.2089 ± 0.0047 W/m/K
323.21 K, 98254 kPa | 0.2085 ± 0.0047 W/m/K
323.21 K, 98259 kPa | 0.2085 ± 0.0047 W/m/K
323.21 K, 98263 kPa | 0.2086 ± 0.0047 W/m/K
373.22 K, 5137 kPa | 0.1853 ± 0.0042 W/m/K
373.22 K, 30213 kPa | 0.1948 ± 0.0044 W/m/K
373.22 K, 30214 kPa | 0.1948 ± 0.0044 W/m/K and 0.1945 ± 0.0044 W/m/K
373.22 K, 49990 kPa | 0.2028 ± 0.0045 W/m/K
373.22 K, 49992 kPa | 0.2028 ± 0.0045 W/m/K
373.22 K, 49994 kPa | 0.2033 ± 0.0046 W/m/K
373.23 K, 5137 kPa | 0.185 ± 0.0042 W/m/K and 0.1845 ± 0.0041 W/m/K
373.23 K, 10114 kPa | 0.1866 ± 0.0042 W/m/K and 0.1868 ± 0.0042 W/m/K
373.23 K, 69936 kPa | 0.2139 ± 0.0048 W/m/K and 0.2138 ± 0.0048 W/m/K
373.23 K, 69937 kPa | 0.214 ± 0.0048 W/m/K
373.23 K, 97514 kPa | 0.2284 ± 0.0051 W/m/K
373.23 K, 97516 kPa | 0.2277 ± 0.0051 W/m/K
373.23 K, 97527 kPa | 0.2275 ± 0.0051 W/m/K
473.27 K, 5260 kPa | 0.2166 ± 0.0049 W/m/K
473.27 K, 5261 kPa | 0.2169 ± 0.0049 W/m/K
473.27 K, 10172 kPa | 0.2187 ± 0.0049 W/m/K and 0.2183 ± 0.0049 W/m/K
473.27 K, 10173 kPa | 0.2193 ± 0.0049 W/m/K
473.27 K, 50076 kPa | 0.2321 ± 0.0052 W/m/K
473.27 K, 50078 kPa | 0.2322 ± 0.0052 W/m/K
473.27 K, 50080 kPa | 0.2317 ± 0.0052 W/m/K
473.27 K, 70131 kPa | 0.2428 ± 0.0054 W/m/K
473.27 K, 70135 kPa | 0.2422 ± 0.0054 W/m/K
473.27 K, 70138 kPa | 0.2419 ± 0.0054 W/m/K
473.27 K, 99148 kPa | 0.2558 ± 0.0057 W/m/K
473.27 K, 99151 kPa | 0.2549 ± 0.0057 W/m/K
473.27 K, 99156 kPa | 0.2552 ± 0.0057 W/m/K
473.28 K, 5261 kPa | 0.2173 ± 0.0049 W/m/K
473.28 K, 30084 kPa | 0.2252 ± 0.005 W/m/K
473.28 K, 30085 kPa | 0.2251 ± 0.005 W/m/K and 0.226 ± 0.0051 W/m/K
473.29 K, 99160 kPa | 0.2472 ± 0.0055 W/m/K
573.24 K, 30146 kPa | 0.2549 ± 0.0057 W/m/K
573.24 K, 50100 kPa | 0.2618 ± 0.0059 W/m/K
573.24 K, 70129 kPa | 0.2675 ± 0.006 W/m/K
573.24 K, 97066 kPa | 0.2798 ± 0.0063 W/m/K
573.24 K, 97071 kPa | 0.2805 ± 0.0063 W/m/K
573.24 K, 97072 kPa | 0.2792 ± 0.0063 W/m/K
573.25 K, 5197 kPa | 0.2478 ± 0.0056 W/m/K
573.25 K, 5199 kPa | 0.2472 ± 0.0055 W/m/K
573.25 K, 5200 kPa | 0.2477 ± 0.0055 W/m/K
573.25 K, 10292 kPa | 0.2503 ± 0.0056 W/m/K
573.25 K, 10294 kPa | 0.2496 ± 0.0056 W/m/K
573.25 K, 10295 kPa | 0.2496 ± 0.0056 W/m/K
573.25 K, 30146 kPa | 0.2552 ± 0.0057 W/m/K
573.25 K, 30149 kPa | 0.2558 ± 0.0057 W/m/K
573.25 K, 50095 kPa | 0.2609 ± 0.0058 W/m/K
573.25 K, 50100 kPa | 0.2599 ± 0.0058 W/m/K
573.25 K, 70160 kPa | 0.268 ± 0.006 W/m/K
573.25 K, 70165 kPa | 0.2662 ± 0.006 W/m/K
672.87 K, 98224 kPa | 0.3057 ± 0.0068 W/m/K
672.87 K, 98230 kPa | 0.3055 ± 0.0068 W/m/K
672.87 K, 98231 kPa | 0.3054 ± 0.0068 W/m/K
672.88 K, 30064 kPa | 0.2852 ± 0.0064 W/m/K
672.88 K, 30085 kPa | 0.2823 ± 0.0063 W/m/K
672.88 K, 50184 kPa | 0.2882 ± 0.0065 W/m/K
672.88 K, 70068 kPa | 0.293 ± 0.0066 W/m/K
672.88 K, 70074 kPa | 0.2949 ± 0.0066 W/m/K
672.88 K, 70081 kPa | 0.2948 ± 0.0066 W/m/K
672.89 K, 5417 kPa | 0.2774 ± 0.0062 W/m/K
672.89 K, 10409 kPa | 0.2788 ± 0.0062 W/m/K
672.89 K, 10412 kPa | 0.279 ± 0.0062 W/m/K
672.89 K, 10414 kPa | 0.2784 ± 0.0062 W/m/K
672.89 K, 30054 kPa | 0.2843 ± 0.0064 W/m/K
672.89 K, 50178 kPa | 0.2895 ± 0.0065 W/m/K
672.89 K, 50182 kPa | 0.2888 ± 0.0065 W/m/K
672.9 K, 5413 kPa | 0.2765 ± 0.0062 W/m/K
672.9 K, 5416 kPa | 0.277 ± 0.0062 W/m/K
771.89 K, 50118 kPa | 0.3162 ± 0.0071 W/m/K
771.89 K, 50125 kPa | 0.3184 ± 0.0071 W/m/K
771.89 K, 50128 kPa | 0.3182 ± 0.0071 W/m/K
771.89 K, 70299 kPa | 0.3237 ± 0.0072 W/m/K
771.89 K, 70303 kPa | 0.3173 ± 0.0071 W/m/K
771.89 K, 70305 kPa | 0.3224 ± 0.0072 W/m/K
771.89 K, 99452 kPa | 0.3302 ± 0.0074 W/m/K
771.89 K, 99460 kPa | 0.3299 ± 0.0074 W/m/K
771.89 K, 99462 kPa | 0.3321 ± 0.0074 W/m/K
771.9 K, 30345 kPa | 0.3126 ± 0.007 W/m/K
771.9 K, 30348 kPa | 0.3102 ± 0.0069 W/m/K
771.9 K, 30350 kPa | 0.313 ± 0.007 W/m/K
771.91 K, 10197 kPa | 0.3094 ± 0.0069 W/m/K
771.91 K, 10199 kPa | 0.3093 ± 0.0069 W/m/K
771.92 K, 5204 kPa | 0.3065 ± 0.0069 W/m/K
771.93 K, 3005 kPa | 0.3046 ± 0.0068 W/m/K
771.93 K, 3008 kPa | 0.3049 ± 0.0068 W/m/K
771.93 K, 5202 kPa | 0.3079 ± 0.0069 W/m/K
771.94 K, 1059 kPa | 0.2998 ± 0.0067 W/m/K
771.94 K, 1068 kPa | 0.3028 ± 0.0068 W/m/K
771.94 K, 1071 kPa | 0.3022 ± 0.0068 W/m/K
771.94 K, 1074 kPa | 0.304 ± 0.0068 W/m/K
771.94 K, 3001 kPa | 0.3012 ± 0.0067 W/m/K
771.94 K, 3003 kPa | 0.3055 ± 0.0068 W/m/K
